These are literature values, as cited in US8481600B2, “Formulation of aspirin that is stable and showing minimal hydrolysis for parenteral administration for the treatment of cardiovascular and other disease states” (Academic Pharmaceuticals, Inc., priority 2007, dated 2013).

The conditions of data set [1]: cited from earlier work.
For data set [2] the following is noted: cited from earlier work. This is another data set of the same source.
For data set [3] the following is noted: cited from earlier work. This is another data set of the same source.

For the molecule `CC(=O)Oc1ccccc1C(=O)O` [Lysine acetylsalicylate], in data set [1] (IV), the “shortest half life after IV administration” value was 7.5 min. Besides, the “metabolism and hydrolysis to salicylic acid” value in data set [1] (in vivo) is listed as “rapid”. In addition, the “treatment of acute migraine headaches” value in data set [2] (human, in vivo) is listed as “effective”. The “incidence of sensitivity that can lead to anaphylactic shock” value in data set [2] (patients) is recorded as “up to 5%”. In addition, in data set [3], the water solubility entry is recorded as “readily water soluble”.
